Common to all, as to experiment: Ras GTP binding domain inhibition assay (labeled GTP)
Assay [1] has as its target KRas G12D mutant protein (Homo sapiens (Human), UniProt P01116, G12D). Conditions: 20 μM compound; KRas G12D; read-out: % Inhibition at 20 μM of K-Ras mutant and wild-type protein, KRas G12D.
Assay [2] addresses KRas wild type (Homo sapiens (Human), UniProt P01116). The note with it: 20 μM compound; KRas wild type; read-out: % Inhibition at 20 μM of K-Ras mutant and wild-type protein, KRas wild type. In short, it runs like this: (§1)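 Ni-plate capture of His-KRas (3-10 μg/ml, o/n, 4° C); Tris pH 7.5/MgCl2/DTT buffer, 1% DMSO. Cpd 20 μM or titration, 3 h RT. Cy3/Cy5-GTP 45 min RT, wash, fluorescence of bound GTP.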

Assay [3] concerns the target KRas G12C mutant (Homo sapiens (Human), UniProt P01116, G12C). The note with it: 20 μM compound; KRas G12C; read-out: % Inhibition at 20 μM of K-Ras mutant and wild-type protein, KRas G12C. In short, it runs like this:
as §1

Assay [4] has as its target KRas G12C/Q61H double mutant (Homo sapiens (Human), UniProt P01116, G12C/Q61H). The note with it: 20 μM compound. In short, it runs like this: as §1
Assay [5] addresses KRas G12D/Q61H double mutant (Homo sapiens (Human), UniProt P01116, G12D/Q61H). The note with it: for inhibition at 20 µM: 20 μM compound; for IC50: serial dilution, read-out: KRas G12D Q61H (classes E-H, IC50). Summed up:
as §1

Assay [6] addresses KRas Q61H mutant (Homo sapiens (Human), UniProt P01116, Q61H). The note with it: 20 μM compound. In short, it runs like this: as §1
[7] abbreviates: read-out: % Inhibition at 20 μM KRas G12C Q61H.
Setting [8] is: read-out: % Inhibition at 20 μM KRas G12D Q61H.
The mark [9] stands for this setting: read-out: % Inhibition at 20 μM KRas Q61H.
[10] abbreviates: KRas G12C/Q61H double mutant, read-out: % Inhibition at 20 μM of K-Ras mutant and wild-type protein, KRas G12C Q61H.
[11] abbreviates: KRas G12D/Q61H double mutant, read-out: % Inhibition at 20 μM of K-Ras mutant and wild-type protein, KRas G12D Q61H.
The mark [12] stands for this setting: KRas Q61H, read-out: % Inhibition at 20 μM of K-Ras mutant and wild-type protein, KRas Q61H.

37 compounds from US10940139B2, “Compounds that interact with the Ras superfamily for the treatment of cancers, inflammatory diseases, rasopathies, and fibrotic disease” (Shy Therapeutics LLC, priority 2017, dated 2021) can be followed below.

For orientation: inhibition means the change of the read-out against control, counted positive when it falls. One may read the IC50 as the point on the concentration scale where inhibition reaches its midpoint.

Where two headings read alike, the source gives them in different places.

Chain of KRas Q61H mutant (P01116-2 other isoform, or with tags, fused parts or gaps Q61H): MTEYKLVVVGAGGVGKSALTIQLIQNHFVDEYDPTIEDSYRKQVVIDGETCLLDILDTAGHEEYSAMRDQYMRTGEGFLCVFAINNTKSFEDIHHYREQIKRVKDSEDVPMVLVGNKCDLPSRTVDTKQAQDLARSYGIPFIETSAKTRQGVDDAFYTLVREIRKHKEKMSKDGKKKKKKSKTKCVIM
Chain of KRas G12D/Q61H double mutant (P01116-2 other isoform, or with tags, fused parts or gaps G12D/Q61H): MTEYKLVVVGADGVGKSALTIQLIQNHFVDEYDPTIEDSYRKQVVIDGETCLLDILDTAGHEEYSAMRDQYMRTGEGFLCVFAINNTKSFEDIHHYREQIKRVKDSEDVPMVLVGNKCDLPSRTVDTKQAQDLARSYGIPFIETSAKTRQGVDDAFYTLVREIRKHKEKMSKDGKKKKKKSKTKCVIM
Chain of KRas G12C/Q61H double mutant (P01116-2 other isoform, or with tags, fused parts or gaps G12C/Q61H): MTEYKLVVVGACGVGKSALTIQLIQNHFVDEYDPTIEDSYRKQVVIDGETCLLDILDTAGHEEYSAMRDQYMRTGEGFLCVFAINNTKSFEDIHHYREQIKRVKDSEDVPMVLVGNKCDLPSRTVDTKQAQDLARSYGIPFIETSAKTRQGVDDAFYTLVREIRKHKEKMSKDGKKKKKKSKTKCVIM
Chain of KRas G12C mutant (P01116-2 other isoform, or with tags, fused parts or gaps G12C): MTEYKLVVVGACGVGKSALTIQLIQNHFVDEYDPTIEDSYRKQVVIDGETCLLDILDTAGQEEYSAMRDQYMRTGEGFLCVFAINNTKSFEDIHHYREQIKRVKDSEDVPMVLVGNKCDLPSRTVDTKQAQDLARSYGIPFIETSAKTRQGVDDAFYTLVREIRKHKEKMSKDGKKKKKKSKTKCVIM
Chain of KRas wild type (P01116-2 other isoform, or with tags, fused parts or gaps): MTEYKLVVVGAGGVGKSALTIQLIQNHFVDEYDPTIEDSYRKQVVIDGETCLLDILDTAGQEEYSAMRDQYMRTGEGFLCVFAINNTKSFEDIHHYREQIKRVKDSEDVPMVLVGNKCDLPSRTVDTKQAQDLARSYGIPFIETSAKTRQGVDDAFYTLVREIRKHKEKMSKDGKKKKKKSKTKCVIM
Chain of KRas G12D mutant protein (P01116-2 other isoform, or with tags, fused parts or gaps G12D): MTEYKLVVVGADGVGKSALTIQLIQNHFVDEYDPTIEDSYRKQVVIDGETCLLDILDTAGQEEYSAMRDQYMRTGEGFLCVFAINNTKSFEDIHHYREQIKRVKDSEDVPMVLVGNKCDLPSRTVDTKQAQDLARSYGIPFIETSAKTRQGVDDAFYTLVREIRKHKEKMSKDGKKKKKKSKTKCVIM

Turning to `COC1CCN(c2nc(-c3nccn3C)nc3sc(-c4ccccc4)c(-c4ccccc4)c23)C1` (stereo not drawn) [drawing 3571], the inhibition at 20 µM was 51 to 75% in assay [1], 25 to 50% in assay [2] and 1 to 25% in assay [3].

With `N#Cc1cccc(CCNC(=O)c2csc3nc(-c4ccccn4)nc(N4CCOCC4)c23)c1` [drawing 2787], the inhibition at 20 µM fell in the range of 25 to 50% in assay [4] (setting [7]), 1 to 25% in assay [5] (setting [8]) and 25 to 50% in assay [6] (setting [9]).

Consider `COc1nc(-c2ccccn2)nc2c(C3CC3)csc12` [drawing 3489], for which the values for the inhibition at 20 µM in assay [4] (setting [10]), in assay [5] (setting [11]) and in assay [6] (setting [12]) were 0%, 1 to 25% and 0%, respectively.

As to `Nc1nc(-c2ccccn2)nc2scc(Br)c12` [drawing 2894], the values for the inhibition at 20 µM in assay [4] (setting [7]), in assay [5] (setting [8]) and in assay [6] (setting [9]) were 25 to 50%, 25 to 50% and 51 to 75%, respectively.

On to `Oc1nc(-c2ccccn2)nc2c(C3CCCCC3)csc12` [drawing 3511], for which the inhibition at 20 µM in assay [4] (setting [10]) fell in the range of 25 to 50%; in assay [5] (setting [11]), 25 to 50%; in assay [6] (setting [12]), 51 to 75%.

As to `Oc1nc(-c2ccccn2)nc2c(-c3ccc(OC4CCOCC4)cc3)csc12` [drawing 2867], the inhibition at 20 µM in assay [4] (setting [7]), in assay [5] (setting [8]) and in assay [6] (setting [9]) was 25 to 50% each time.

Consider `CC(C)(C)c1sc2c(O)nc(-c3ccccn3)nc2c1Br` [drawing 3554], for which the values for the inhibition at 20 µM in assay [4] (setting [10]), in assay [5] (setting [11]) and in assay [6] (setting [12]) were 25 to 50%, 25 to 50% and 51 to 75%, respectively.

As for `NC(=O)C1CCCN1C(=O)c1cccc(-c2cc3nc(N)nc(O)c3s2)c1` (stereo not drawn) [drawing 3544], the inhibition at 20 µM was 1 to 25% in assay [4] (setting [10]), 0% in assay [5] (setting [11]) and 1 to 25% in assay [6] (setting [12]).

Regarding `Nc1nc(O)c2sc(-c3cccc(C(=O)NCc4ncc[nH]4)c3)cc2n1` [drawing 3545], the inhibition at 20 µM was 1 to 25% in assay [4] (setting [10]), 0% in assay [5] (setting [11]) and 0% in assay [6] (setting [12]).

In the case of `Oc1nc(-c2ccccn2)nc2c(-c3ccc(CN4CCOCC4)cc3)csc12` [drawing 2882], the inhibition at 20 µM in assay [4] (setting [7]), in assay [5] (setting [8]) and in assay [6] (setting [9]) was 25 to 50% throughout.

As for `Cc1cc(OC(F)F)ccc1-c1csc2c(O)nc(-c3ccccn3)nc12` [drawing 2878], the inhibition at 20 µM in assay [4] (setting [7]), in assay [5] (setting [8]) and in assay [6] (setting [9]) was 25 to 50% throughout.

In the case of `Nc1nc(O)c2sc(-c3cccc(C(=O)NC4CCNC4=O)c3)cc2n1` (stereo not drawn) [drawing 3542], the inhibition at 20 µM was 1 to 25% in assay [4] (setting [10]), 1 to 25% in assay [5] (setting [11]) and 0% in assay [6] (setting [12]).

Turning to `CC(C)c1nn(C)cc1-c1csc2c(O)nc(-c3ccccn3)nc12` [drawing 3501], the inhibition at 20 µM in assay [4] (setting [10]), in assay [5] (setting [11]) and in assay [6] (setting [12]) was 51 to 75% in each case.

Consider `O=C(c1csc2c(O)nc(-c3ccccn3)nc12)N1CCNC(Cc2ccccc2)C1` (stereo not drawn) [drawing 2778], for which the results for the inhibition at 20 µM in assay [4] (setting [7]), in assay [5] (setting [8]) and in assay [6] (setting [9]) were 51 to 75%, 25 to 50% and 51 to 75%, respectively.

`COc1nc(-c2ccccn2)nc(Oc2cccc(C(F)(F)F)c2)c1OC` [drawing 3552]: the figures for the inhibition at 20 µM in assay [4] (setting [10]), in assay [5] (setting [11]) and in assay [6] (setting [12]) were 0%, 1 to 25% and 0%, respectively.

On to `COc1cccc(CC2CN(C(=O)c3csc4c(O)nc(-c5ccccn5)nc34)CCN2)c1` (stereo not drawn) [drawing 2830], for which the inhibition at 20 µM in assay [4] (setting [7]), in assay [5] (setting [8]) and in assay [6] (setting [9]) was 51 to 75% throughout.

For the compound `Oc1nc(-c2ccccn2)nc2c(-c3ccc(OC4CCCCC4)cc3)csc12` [drawing 2887], the inhibition at 20 µM in assay [4] (setting [7]), in assay [5] (setting [8]) and in assay [6] (setting [9]) was 25 to 50% in each case.

Take `O=C(NCCc1nnn[nH]1)c1csc2nc(-c3ccccn3)nc(N3CCOCC3)c12` [drawing 2786]: the inhibition at 20 µM was 25 to 50% in assay [4] (setting [7]), 1 to 25% in assay [5] (setting [8]) and 51 to 75% in assay [6] (setting [9]).

Turning to `CNS(=O)(=O)CCCNC(=O)c1csc2nc(-c3ccccn3)nc(N3CCOCC3)c12` [drawing 2791], the inhibition at 20 µM in assay [4] (setting [7]) was 25 to 50%; in assay [5] (setting [8]), 1 to 25%; in assay [6] (setting [9]), 25 to 50%.

As for `CCn1nc(C)cc1-c1csc2c(O)nc(-c3ccccn3)nc12` [drawing 2903], the inhibition at 20 µM in assay [4] (setting [7]), in assay [5] (setting [8]) and in assay [6] (setting [9]) was 51 to 75% each time. Besides, the IC50 in assay [5] fell in the range of 11 to 30 µM.

As for `Cc1sc2c(O)nc(-c3ccccn3)nc2c1C(=O)N1CCN(c2ccccc2)CC1` [drawing 3508], the inhibition at 20 µM in assay [4] (setting [10]) was 51 to 75%; in assay [5] (setting [11]), 25 to 50%; in assay [6] (setting [12]), 51 to 75%.

Regarding `COc1ccnc(-c2nc(O)c3c(C(F)(F)F)csc3n2)c1` [drawing 2833], the inhibition at 20 µM in assay [4] (setting [7]), in assay [5] (setting [8]) and in assay [6] (setting [9]) was 25 to 50% in each case.

Regarding `O=C(c1csc2c(O)nc(-c3ccccn3)nc12)N1CCOC(c2nccs2)C1` (stereo not drawn) [drawing 2734], the inhibition at 20 µM in assay [4] (setting [7]) lay within 51 to 75%; in assay [5] (setting [8]), 25 to 50%; in assay [6] (setting [9]), 51 to 75%. The IC50 in assay [5] was 5 to 10 µM.

As for `COc1ccncc1CCNC(=O)c1csc2nc(-c3ccccn3)nc(N3CCOCC3)c12` [drawing 2780], the inhibition at 20 µM was 1 to 25% in assay [4] (setting [7]), 1 to 25% in assay [5] (setting [8]) and 25 to 50% in assay [6] (setting [9]).

For the compound `Nc1nc(-c2ccccn2)nc(C(=O)NCCc2ccncc2)c1Oc1ccccc1` [drawing 3551], the inhibition at 20 µM in assay [4] (setting [10]) fell in the range of 1 to 25%; in assay [5] (setting [11]), 25 to 50%; in assay [6] (setting [12]), 25 to 50%.

As to `O=C(c1csc2c(O)nc(-c3ccccn3)nc12)N1CCN(Cc2ccccc2)CC1` [drawing 2762], the inhibition at 20 µM in assay [4] (setting [7]) was 51 to 75%; in assay [5] (setting [8]), 25 to 50%; in assay [6] (setting [9]), 76 to 100%.

Regarding `Nc1nc(-c2ccccn2)nc2c(Br)csc12` [drawing 2892], the inhibition at 20 µM fell in the range of 1 to 25% in assay [4] (setting [7]), 25 to 50% in assay [5] (setting [8]) and 25 to 50% in assay [6] (setting [9]).

As to `O=C(c1csc2c(O)nc(-c3ccccn3)nc12)N1CCN(c2cccc(F)c2)CC1` [drawing 2753], the results for the inhibition at 20 µM in assay [4] (setting [7]), in assay [5] (setting [8]) and in assay [6] (setting [9]) were 51 to 75%, 25 to 50% and 76 to 100%, respectively.

Turning to `Cc1c(-c2csc3c(O)nc(-c4ccccn4)nc23)cnn1C` [drawing 3505], the inhibition at 20 µM lay in the range of 51 to 75% in assay [4] (setting [10]), 51 to 75% in assay [5] (setting [11]) and 76 to 100% in assay [6] (setting [12]).

With `Cc1c(C(=O)N2CCN(c3ccccc3)CC2)sc2c(O)nc(-c3ccccn3)nc12` [drawing 3483], the inhibition at 20 µM in assay [4] (setting [10]), in assay [5] (setting [11]) and in assay [6] (setting [12]) was 51 to 75% throughout.

Regarding `O=C(NCCc1cccnc1)c1cc2nc(-c3ccccn3)nc(O)c2s1` [drawing 2843], the inhibition at 20 µM in assay [4] (setting [7]) was 51 to 75%; in assay [5] (setting [8]) it was 25 to 50%; in assay [6] (setting [9]), 51 to 75%.

`Nc1nc(O)c2sc(-c3cccc(C(=O)N4CCC(O)C4)c3)cc2n1` (stereo not drawn) [drawing 3543]: the inhibition at 20 µM in assay [4] (setting [10]), in assay [5] (setting [11]) and in assay [6] (setting [12]) was 1 to 25% in each case.

On to `COc1ccccc1C1CN(C(=O)c2csc3c(O)nc(-c4ccccn4)nc23)CCO1` (stereo not drawn) [drawing 2767], for which the inhibition at 20 µM in assay [4] (setting [7]) was in the range of 51 to 75%; in assay [5] (setting [8]), 51 to 75%; in assay [6] (setting [9]), 76 to 100%. For the same compound, the IC50 in assay [5] is 11 to 30 µM.

As to `CN(CCc1cccc(C#N)c1)C(=O)c1csc2nc(-c3ccccn3)nc(N3CCOCC3)c12` [drawing 2788], the inhibition at 20 µM in assay [4] (setting [7]) lay within 51 to 75%; in assay [5] (setting [8]) it was 1 to 25%; in assay [6] (setting [9]), 51 to 75%.

As for `Cn1cnc(-c2nc(O)c3c(-c4ccccc4)c(-c4ccncc4)sc3n2)c1` [drawing 3528], the inhibition at 20 µM in assay [4] (setting [10]), in assay [5] (setting [11]) and in assay [6] (setting [12]) was 1 to 25% in each case.

Regarding `COCCN(CCOC)c1nc(-c2ccccn2)nc2scc(C(=O)NCCc3ccc(OC)nc3)c12` [drawing 2792], the results for the inhibition at 20 µM in assay [4] (setting [7]), in assay [5] (setting [8]) and in assay [6] (setting [9]) were 1 to 25%, 1 to 25% and 25 to 50%, respectively.

Regarding `COc1ccc(CCNC(=O)c2csc3nc(-c4ccccn4)nc(N4CCOCC4)c23)cn1` [drawing 2745], the inhibition at 20 µM in assay [4] (setting [7]) was in the range of 25 to 50%; in assay [5] (setting [8]), 25 to 50%; in assay [6] (setting [9]), 51 to 75%.
